Experiments:
hBMX = target: T1, hBMX (Homo sapiens, UniProt P51813); experiment: Mass spectrometry of drug-conjugated hBMX; conditions: 2.5 mM compound, room temperature, 30 min, PBS pH 7.4; MS/MS after digestion
T1 construct: Crystallization, data collection, and structure determination of BMX catalytic domain in; made in house; host or cells: Sf-9 insect cells
Procedure: Mass spectrometry (MS) studies confirmed the covalent binding of JS24 at cysteine 496 of BMX. The truncated hBMX was analyzed by native MS and the protein mass found was 30899 Da (Fig. 2a). The protein was then treated with 2.5 mM of JS24 at room temperature for 30 min in PBS pH 7.4 and directly analyzed by denaturing MS. The protein was fully denatured and cleaned on a reverse phase column, discarding any non-specific binding, to retain only any covalently linked compound. The mass found upon incubation with JS24 is 31 424 Da, which is 525 Da larger than the apo-form of hBMX (Fig. 2b).
Fig. 2 Mass spectrometric analysis of BMX and JS24 conjugated to BMX. (a) Native MS analysis of hBMX. The measured molecular weight is indicated. […] The measured molecular weight is indicated. […]
The BMX enzyme system (Catalog. V4512) and the ADP-GloTM kinase assay were purchased from Promega Corporation (USA). […] Then, 10 µL of kinase detection reagent was added into the wells and incubated for 30 min to produce a luminescence signal. The signal was measured using an Infinite M200 Microplate Reader (Tecan Group Ltd, Switzerland), with an integration time of 0.250s. The observed rate constants for inhibition (kobs), at different inhibitor concentrations, were determined from the slope of a semi-logarithmic plot of inhibition versus time, and re-plotted against inhibitor concentration (nM). […]

Kasumi = experiment: Multi cell line growth assay (CellTiter-Glo, 72 h); assay type: cell-based, human; conditions: Homo sapiens, Blood, ND = no growth inhibition observed
LNCaP = experiment: Multi cell line growth assay (CellTiter-Glo, 72 h); assay type: cell-based, human; conditions: Homo sapiens, LNCaP, Prostate, ND = no growth inhibition observed within the concentrations tested
22 RV1 = experiment: Multi cell line growth assay (CellTiter-Glo, 72 h); assay type: cell-based, human; conditions: Homo sapiens, 22Rv1, Prostate, ND = no growth inhibition observed
DAUDI = experiment: Multi cell line growth assay (CellTiter-Glo, 72 h); assay type: cell-based, human; conditions: Homo sapiens, Daudi, Lymphoid, ND = no growth inhibition observed
[1] = target: JAK2(JH1domain-catalytic) (Homo sapiens, UniProt O60674); experiment: KINOMEscan binding; conditions: read-out: % Ctrl JAK2(JH1domain-catalytic)
Procedure: (§1) Therefore, we included the whole TEC, EGFR and JAK family in our screening, and the Src family and Lkb1, which also have a cysteine within the same sequence alignment. We also included kinases involved in upstream (Src, FAK, PI3K, mTOR, PDK1) and downstream (Akt, PAK1, TAM) regulation of BMX signaling pathway and non-receptor tyrosine protein kinase Abl.
(§2) Kinome selectivity was performed with DiscoverX KINOMEscan™ technology.

AKT1 = AKT1 (Homo sapiens, UniProt P31749); experiment: KINOMEscan binding; conditions: read-out: % Ctrl AKT1
Procedure: as §1, §2

PIK3CD = PIK3CD (Homo sapiens, UniProt O00329); experiment: KINOMEscan binding; conditions: read-out: % Ctrl PIK3CD
Procedure: as §1, §2

ERBB3 = ERBB3 (Homo sapiens, UniProt P21860); experiment: KINOMEscan binding; conditions: read-out: % Ctrl ERBB3
Procedure: (§3) Therefore, we included the whole TEC, EGFR and JAK family in our screening, and the Src family and Lkb1, which also have a cysteine within the same sequence alignment.
as §2

PAK1 = PAK1 (Homo sapiens, UniProt Q13153); experiment: KINOMEscan binding; conditions: read-out: % Ctrl PAK1
Procedure: as §1, §2

ERBB4 = ERBB4 (Homo sapiens, UniProt Q15303); experiment: KINOMEscan binding; conditions: read-out: % Ctrl ERBB4
Procedure: as §3, §2

[2] = target: JAK1(JH1domain-catalytic) (Homo sapiens, UniProt P23458); experiment: KINOMEscan binding; conditions: read-out: % Ctrl JAK1(JH1domain-catalytic)
Procedure: as §3, §2

EGFR = EGFR (Homo sapiens, UniProt P00533); experiment: KINOMEscan binding; conditions: read-out: % Ctrl EGFR
Procedure: as §3, §2

[3] = target: TYK2(JH1domain-catalytic) (Homo sapiens, UniProt P29597); experiment: KINOMEscan binding; conditions: read-out: % Ctrl TYK2(JH1domain-catalytic)
Procedure: as §1, §2

BTK = BTK (Homo sapiens, UniProt Q06187); experiment: KINOMEscan binding; conditions: read-out: % Ctrl BTK
BTK, sequence (Q06187 whole entry, species assumed): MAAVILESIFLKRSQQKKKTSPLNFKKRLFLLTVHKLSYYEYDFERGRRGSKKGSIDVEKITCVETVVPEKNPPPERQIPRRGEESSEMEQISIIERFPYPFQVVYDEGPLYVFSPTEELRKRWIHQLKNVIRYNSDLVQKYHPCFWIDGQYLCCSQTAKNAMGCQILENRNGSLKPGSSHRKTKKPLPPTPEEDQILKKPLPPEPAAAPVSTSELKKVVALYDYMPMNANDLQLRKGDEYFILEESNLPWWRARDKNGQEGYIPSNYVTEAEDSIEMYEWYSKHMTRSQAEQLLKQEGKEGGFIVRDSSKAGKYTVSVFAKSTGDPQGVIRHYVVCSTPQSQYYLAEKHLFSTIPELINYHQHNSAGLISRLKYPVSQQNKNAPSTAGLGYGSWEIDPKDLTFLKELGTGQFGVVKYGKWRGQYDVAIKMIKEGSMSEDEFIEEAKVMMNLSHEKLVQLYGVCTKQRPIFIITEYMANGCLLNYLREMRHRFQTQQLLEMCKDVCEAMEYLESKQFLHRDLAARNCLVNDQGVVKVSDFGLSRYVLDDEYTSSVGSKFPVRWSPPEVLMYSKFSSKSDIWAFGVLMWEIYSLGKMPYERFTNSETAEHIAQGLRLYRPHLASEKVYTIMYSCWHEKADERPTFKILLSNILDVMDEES
Procedure: as §3, §2

ERBB4, sequence (Q15303 26-1308): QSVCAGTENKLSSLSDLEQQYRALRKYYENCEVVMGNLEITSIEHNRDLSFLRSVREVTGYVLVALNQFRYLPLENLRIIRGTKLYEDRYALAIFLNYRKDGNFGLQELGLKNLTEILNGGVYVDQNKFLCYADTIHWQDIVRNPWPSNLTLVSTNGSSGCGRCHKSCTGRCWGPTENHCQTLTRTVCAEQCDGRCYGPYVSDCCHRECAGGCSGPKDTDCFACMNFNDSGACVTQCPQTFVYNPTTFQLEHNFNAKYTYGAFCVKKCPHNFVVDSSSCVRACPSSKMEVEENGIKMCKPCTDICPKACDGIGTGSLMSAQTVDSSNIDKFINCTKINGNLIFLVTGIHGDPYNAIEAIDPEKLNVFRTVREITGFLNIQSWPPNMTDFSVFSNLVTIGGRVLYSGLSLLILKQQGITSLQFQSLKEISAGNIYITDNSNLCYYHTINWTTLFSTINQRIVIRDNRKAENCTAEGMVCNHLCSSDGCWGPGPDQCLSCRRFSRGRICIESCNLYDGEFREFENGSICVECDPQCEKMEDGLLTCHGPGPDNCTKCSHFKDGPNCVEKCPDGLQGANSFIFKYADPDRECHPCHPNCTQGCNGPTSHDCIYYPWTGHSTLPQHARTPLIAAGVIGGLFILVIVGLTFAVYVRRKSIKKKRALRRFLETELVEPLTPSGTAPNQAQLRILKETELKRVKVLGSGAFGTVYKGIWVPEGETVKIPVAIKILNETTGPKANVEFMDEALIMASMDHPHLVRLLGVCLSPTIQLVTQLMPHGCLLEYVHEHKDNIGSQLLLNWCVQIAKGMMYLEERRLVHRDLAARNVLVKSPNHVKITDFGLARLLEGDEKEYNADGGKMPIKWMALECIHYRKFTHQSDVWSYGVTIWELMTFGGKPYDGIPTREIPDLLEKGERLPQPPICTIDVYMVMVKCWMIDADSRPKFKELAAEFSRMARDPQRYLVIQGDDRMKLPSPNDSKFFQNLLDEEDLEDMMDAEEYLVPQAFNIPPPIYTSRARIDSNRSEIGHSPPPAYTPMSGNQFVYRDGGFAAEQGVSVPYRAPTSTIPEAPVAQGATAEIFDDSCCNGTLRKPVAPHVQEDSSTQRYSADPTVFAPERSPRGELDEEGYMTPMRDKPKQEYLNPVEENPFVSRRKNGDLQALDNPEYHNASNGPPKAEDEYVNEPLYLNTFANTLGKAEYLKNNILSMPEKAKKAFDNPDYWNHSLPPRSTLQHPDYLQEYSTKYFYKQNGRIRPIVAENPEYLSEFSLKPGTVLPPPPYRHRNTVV
ERBB3, sequence (P21860 20-1342): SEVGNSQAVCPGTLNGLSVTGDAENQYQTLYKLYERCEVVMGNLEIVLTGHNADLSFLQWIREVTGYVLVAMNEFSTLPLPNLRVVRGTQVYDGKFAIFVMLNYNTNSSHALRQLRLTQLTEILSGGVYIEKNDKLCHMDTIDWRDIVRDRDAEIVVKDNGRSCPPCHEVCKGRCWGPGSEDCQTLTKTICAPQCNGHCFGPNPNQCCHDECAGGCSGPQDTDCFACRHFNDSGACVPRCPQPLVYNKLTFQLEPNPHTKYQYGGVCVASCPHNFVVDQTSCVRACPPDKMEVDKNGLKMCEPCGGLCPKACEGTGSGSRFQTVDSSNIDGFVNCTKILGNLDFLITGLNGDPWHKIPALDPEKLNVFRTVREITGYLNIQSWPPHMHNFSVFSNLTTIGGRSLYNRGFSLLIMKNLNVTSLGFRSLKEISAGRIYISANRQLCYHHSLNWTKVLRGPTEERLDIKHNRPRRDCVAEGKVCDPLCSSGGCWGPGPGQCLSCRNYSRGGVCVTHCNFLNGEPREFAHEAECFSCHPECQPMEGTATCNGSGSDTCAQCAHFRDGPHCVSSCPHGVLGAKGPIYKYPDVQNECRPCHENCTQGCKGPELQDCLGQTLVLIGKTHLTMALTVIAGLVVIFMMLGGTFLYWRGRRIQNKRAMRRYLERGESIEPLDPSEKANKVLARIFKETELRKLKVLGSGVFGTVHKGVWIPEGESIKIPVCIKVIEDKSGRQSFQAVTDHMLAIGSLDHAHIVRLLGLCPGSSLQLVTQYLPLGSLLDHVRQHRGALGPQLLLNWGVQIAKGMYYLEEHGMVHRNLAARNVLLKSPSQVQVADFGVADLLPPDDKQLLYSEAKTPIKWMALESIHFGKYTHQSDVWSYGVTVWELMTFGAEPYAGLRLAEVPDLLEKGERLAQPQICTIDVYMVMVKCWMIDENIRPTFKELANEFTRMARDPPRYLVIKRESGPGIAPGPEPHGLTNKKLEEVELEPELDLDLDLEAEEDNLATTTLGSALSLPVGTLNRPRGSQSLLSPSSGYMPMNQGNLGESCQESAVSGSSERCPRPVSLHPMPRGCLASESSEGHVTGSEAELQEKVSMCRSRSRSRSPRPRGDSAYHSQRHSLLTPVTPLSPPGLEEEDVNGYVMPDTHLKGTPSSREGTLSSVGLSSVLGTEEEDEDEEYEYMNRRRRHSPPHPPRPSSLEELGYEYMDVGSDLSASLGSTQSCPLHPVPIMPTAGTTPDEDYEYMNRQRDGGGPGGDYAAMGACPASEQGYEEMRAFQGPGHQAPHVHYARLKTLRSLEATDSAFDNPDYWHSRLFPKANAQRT
JAK2(JH1domain-catalytic), sequence (O60674 841-1132 limits assumed): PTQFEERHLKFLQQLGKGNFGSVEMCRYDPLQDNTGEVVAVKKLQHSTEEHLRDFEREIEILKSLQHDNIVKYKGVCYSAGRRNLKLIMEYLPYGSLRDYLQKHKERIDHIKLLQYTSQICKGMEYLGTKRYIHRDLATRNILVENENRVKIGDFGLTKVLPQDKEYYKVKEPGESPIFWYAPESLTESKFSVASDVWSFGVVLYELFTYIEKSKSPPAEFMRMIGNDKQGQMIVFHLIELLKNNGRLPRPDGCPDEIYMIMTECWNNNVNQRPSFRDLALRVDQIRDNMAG
EGFR, sequence (P00533 25-1210): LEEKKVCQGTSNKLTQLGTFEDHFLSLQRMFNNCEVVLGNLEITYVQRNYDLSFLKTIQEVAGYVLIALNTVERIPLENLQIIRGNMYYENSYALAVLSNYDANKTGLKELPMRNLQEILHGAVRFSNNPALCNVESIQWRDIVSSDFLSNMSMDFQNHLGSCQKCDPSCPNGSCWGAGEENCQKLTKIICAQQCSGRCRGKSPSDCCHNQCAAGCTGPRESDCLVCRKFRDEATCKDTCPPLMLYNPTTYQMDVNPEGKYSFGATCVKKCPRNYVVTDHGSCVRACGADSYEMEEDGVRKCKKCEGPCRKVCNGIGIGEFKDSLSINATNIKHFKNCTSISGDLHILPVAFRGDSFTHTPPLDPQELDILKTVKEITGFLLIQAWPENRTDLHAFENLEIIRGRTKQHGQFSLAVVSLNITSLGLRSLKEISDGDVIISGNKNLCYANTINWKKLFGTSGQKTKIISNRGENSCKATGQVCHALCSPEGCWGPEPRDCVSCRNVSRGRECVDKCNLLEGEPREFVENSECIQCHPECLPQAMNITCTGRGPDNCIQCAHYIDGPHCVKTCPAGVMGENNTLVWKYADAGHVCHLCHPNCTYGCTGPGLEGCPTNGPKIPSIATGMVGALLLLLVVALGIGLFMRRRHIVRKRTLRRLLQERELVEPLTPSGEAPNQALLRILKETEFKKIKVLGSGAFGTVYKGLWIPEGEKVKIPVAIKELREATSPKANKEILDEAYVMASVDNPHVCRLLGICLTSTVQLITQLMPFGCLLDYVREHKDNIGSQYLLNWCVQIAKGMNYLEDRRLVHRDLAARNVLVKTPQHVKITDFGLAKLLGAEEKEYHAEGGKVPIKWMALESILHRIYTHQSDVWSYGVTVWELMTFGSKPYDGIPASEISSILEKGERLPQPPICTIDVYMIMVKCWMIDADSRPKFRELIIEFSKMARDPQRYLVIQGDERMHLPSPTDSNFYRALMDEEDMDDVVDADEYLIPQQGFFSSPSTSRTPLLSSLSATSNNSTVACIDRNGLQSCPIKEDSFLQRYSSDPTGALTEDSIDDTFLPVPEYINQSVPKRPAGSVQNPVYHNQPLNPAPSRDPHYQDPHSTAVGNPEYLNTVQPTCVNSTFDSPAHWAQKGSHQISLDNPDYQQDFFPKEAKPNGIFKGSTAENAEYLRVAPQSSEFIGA
T1 sequence (P51813 417-675 limits assumed): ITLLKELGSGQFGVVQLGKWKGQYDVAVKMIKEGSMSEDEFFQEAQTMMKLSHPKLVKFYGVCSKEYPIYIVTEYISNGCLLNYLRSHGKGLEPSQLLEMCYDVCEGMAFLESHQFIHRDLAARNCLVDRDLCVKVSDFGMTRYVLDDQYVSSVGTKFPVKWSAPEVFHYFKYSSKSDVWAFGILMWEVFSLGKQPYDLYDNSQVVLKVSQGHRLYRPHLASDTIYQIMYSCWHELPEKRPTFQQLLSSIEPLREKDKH

SMILES | site of covalent modification of hBMX (hBMX) | GI50 (Kasumi) | GI50 (LNCaP) | GI50 (22 RV1) | GI50 (DAUDI) | remaining binding at 1 µM [1] | remaining binding at 1 µM (AKT1) | remaining binding at 1 µM (PIK3CD) | remaining binding at 1 µM (ERBB3) | remaining binding at 1 µM (PAK1) | remaining binding at 1 µM (ERBB4) | remaining binding at 1 µM [2] | remaining binding at 1 µM (EGFR) | remaining binding at 1 µM [3] | remaining binding at 1 µM (BTK)
C=CC(=O)Nc1cc(-n2c(=O)ccc3cnc4cc(-c5ccc(NS(C)(=O)=O)cc5)ccc4c32)ccc1C [JS24] | covalent modification at cysteine residue 496 | 5.12 ± 0.12 µM | 4.4 µM | 6.66 ± 0.09 µM | 1.27 ± 0.05 µM |  |  |  |  |  |  |  |  |  | 
C=CC(=O)Nc1cc(C)cc(-n2c(=O)ccc3cnc4cc(-c5ccc(NS(C)(=O)=O)cc5)ccc4c32)c1 [JS25] |  |  |  |  |  | 81% | 100% | 100% | 91% | 100% | 66% | 93% | 87% | 100% | 0%
